Test results published in patent US9540361B2, “N-substituted azetidine derivatives” (Merck Sharp & Dohme B.V., priority 2010, dated 2017).
Counter-ions that a name gives are not always drawn.

How the values were obtained:
[1] = target: T1, human estrogen receptor α (hERα) (Homo sapiens, UniProt P03372); test: antagonistic activity in CHO cells co-transfected with hERα, rat oxytocin promoter and luciferase reporter gene; format: cell-based; conditions: antagonism of 17β-estradiol-induced transactivation, CHO-hERα-RO-LUC; read-out: ERα pIC50 (converted)
T1 sequence (P03372 1-595): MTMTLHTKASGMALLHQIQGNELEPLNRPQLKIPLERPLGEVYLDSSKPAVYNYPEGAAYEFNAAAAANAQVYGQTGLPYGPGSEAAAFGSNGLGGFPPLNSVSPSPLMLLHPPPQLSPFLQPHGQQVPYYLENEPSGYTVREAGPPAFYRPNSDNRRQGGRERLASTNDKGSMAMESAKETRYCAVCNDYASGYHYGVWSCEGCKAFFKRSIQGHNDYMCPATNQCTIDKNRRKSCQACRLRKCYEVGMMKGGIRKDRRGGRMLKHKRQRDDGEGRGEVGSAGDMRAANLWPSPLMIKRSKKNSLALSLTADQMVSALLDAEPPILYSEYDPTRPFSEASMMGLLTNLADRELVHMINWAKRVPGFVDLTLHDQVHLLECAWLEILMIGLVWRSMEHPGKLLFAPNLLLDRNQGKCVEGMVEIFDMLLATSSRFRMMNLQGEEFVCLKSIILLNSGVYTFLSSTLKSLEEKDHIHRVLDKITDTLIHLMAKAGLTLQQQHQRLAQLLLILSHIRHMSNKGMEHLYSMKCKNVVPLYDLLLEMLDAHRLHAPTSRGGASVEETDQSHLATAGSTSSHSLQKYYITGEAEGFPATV
Method: The antagonistic activity of compounds on the estrogen receptors was determined in an in vitro bioassay with recombinant Chinese Hamster Ovary (CHO) cells stably co-transfected with the human estrogen receptor α (hERα), the rat oxytocin promoter (RO) and the luciferase reporter gene (LUC). […] The antagonistic efficacy, i.e. the amount of maximal inhibition of the 17β-estradiol activated receptor by a compound, is expressed as fraction relative to the maximal inhibition as induced by the standard anti-estrogen ICI 164,384 (efficacy test compound=(maximal inhibition test compound/maximal inhibition ICI 164,384)). A more detailed description of the methodology can be found in De Gooyer et al., Steroids, 68 (2003) 21-30.

[2] = target: T2, estrogen receptor alpha (Homo sapiens, UniProt P03372); test: ERα downregulation assay in T47D breast cancer cells (ERα ELISA); format: cell-based; conditions: downregulation of ERα relative to fulvestrant (100%), 1E-5 M, 24 hours, negative = upregulation
T2 construct: endogenous in cells; host or cells: T47D human breast cancer cells (ATCC)
T2 sequence (P03372 1-595): T1 sequence (P03372 1-595)
Text: More specifically, this in vitro bioassay is used to determine the efficacy (fraction of maximal response) of the compound by comparing the data for this compound with those of the reference compound ICI 182,780 (fulvestrant) in the same test (downregulation of fulvestrant is 100% by definition).
A more detailed description of the method used is as follows.
Cell culture. The human epithelial breast cancer cell line T47D (origin: ATCC) was routinely maintained in a 1:1 mixture of Ham's F12 medium and Dulbecco's Modified Eagle Medium (Gibco) enriched with 5% fetal calf serum (Hyclone), 10 mM HEPES pH 7.5 and 100 μg/ml penicillin-streptomycin solution. Cells were grown in 80 cm2 culture flasks (Nunc, Roskilde, Denmark) and kept in an atmosphere of 5% CO2-95% air at 37 degrees Celsius. Cells were subcultured when they reached about 80-90% confluence, resulting in one passage a week. Subculturing includes detaching the cells using Cell Dissociation Buffer [Sigma] and subsequent inoculation at 1:5 or 1:10 in a new Roux flask (175 cc) and\or plating out in Nunclon™ Surface 96 wells microplates. The culture medium needs to be refreshed on day three or four of the incubation, if applicable.
Determination of ERα protein levels: T47D cells in the microplates are incubated with 1E-5 M test compound for 24 hours. The supernatant in all wells is carefully aspirated. Cells are lysed on the microplate and cell lysates are probed for ERα content using an ERα ELISA assay kit (Active Motif).

CCCN1CC(Oc2ccc(C(=O)c3c(-c4ccccc4C)noc3-c3ccc(O)cc3)cc2)C1.Cl [compound 7aj, (5-(4-hydroxyphenyl)-3-o-tolylisoxazol-4-yl)(4-(1-propylazetidin-3-yloxy)-phenyl)methanone hydrochloride]
IC50 [1]: 3.16 nM
DR (%) [2]: 100%

CCCN1CC(Oc2ccc(C(=O)c3c(-c4ncccc4C)noc3-c3ccc(O)cc3)cc2)C1.Cl [compound 7am, (5-(4-hydroxyphenyl)-3-(3-methylpyridin-2-yl)isoxazol-4-yl)(4-(1-propylazetidin-3-yloxy)phenyl)methanone hydrochloride]
IC50 [1]: 25.1 nM
DR (%) [2]: 93%

CCCN1CC(Oc2ccc(C(=O)c3c(-c4sccc4C)noc3-c3ccc(O)cc3)cc2)C1.Cl [compound 7an, (5-(4-hydroxyphenyl)-3-(3-methylthiophen-2-yl)isoxazol-4-yl)(4-(1-propylazetidin-3-yloxy)phenyl)methanone hydrochloride]
IC50 [1]: 2 nM
DR (%) [2]: 98%

CCCN1CC(Oc2ccc(C(=O)c3c(-c4ccccc4Cl)noc3-c3ccccc3)cc2)C1 [compound 7ao, (3-(2-chlorophenyl)-5-phenyl)isoxazol-4-yl)(4-(1-propylazetidin-3-yloxy)-phenyl)methanone hydrochloride]
IC50 [1]: 25.1 nM
DR (%) [2]: 80%

CCCN1CC(Oc2ccc(C(=O)c3c(-c4ccccc4Cl)noc3-c3cccc(O)c3)cc2)C1.Cl [compound 7ap, (3-(2-chlorophenyl)-5-(3-hydroxyphenyl)isoxazol-4-yl)(4-(1-propylazetidin-3-yloxy)phenyl)methanone hydrochloride]
IC50 [1]: 2 nM
DR (%) [2]: 90%

CCCN1CC(Oc2ccc(C(=O)c3c(-c4ccccc4Cl)noc3-c3cc[nH]c3)cc2)C1.O=C(O)C(F)(F)F [compound 7aq, (3-(2-chlorophenyl)-5-(1H-pyrrol-3-yl)isoxazol-4-yl)(4-(1-propylazetidin-3-yl-oxy)phenyl)methanone 2,2,2-trifluoroacetate]
IC50 [1]: 25.1 nM
DR (%) [2]: 78%

CCCN1CC(Oc2ccc(C(=O)c3c(-c4ccccc4Cl)noc3-c3ccc(N)cc3)cc2)C1.O=C(O)C(F)(F)F [compound 7ar, (5-(4-aminophenyl)-3-(2-chlorophenyl)isoxazol-4-yl)(4-(1-propylazetidin-3-yl-oxy)phenyl)methanone 2,2,2-trifluoroacetate]
IC50 [1]: 20 nM
DR (%) [2]: 82%

CCCN1CC(Oc2ccc(C(=O)c3c(-c4ccccc4Cl)noc3-c3cccc4[nH]ncc34)cc2)C1.O=C(O)C(F)(F)F [compound 7as, (3-(2-chlorophenyl)-5-(1H-indazol-4-yl)isoxazol-4-yl)(4-(1-propylazetidin-3-yl-oxy)phenyl)methanone 2,2,2-trifluoroacetate]
IC50 [1]: 39.8 nM
DR (%) [2]: 55%

CCCN1CC(Oc2ccc(C(=O)c3c(-c4ccccc4Cl)noc3-c3ccc(O)cc3)cc2F)C1.Cl [compound 7at, (3-(2-chlorophenyl)-5-(4-hydroxyphenyl)isoxazol-4-yl)(3-fluoro-4-(1-propylazetidin-3-yloxy)phenyl)methanone hydrochloride]
IC50 [1]: 1.58 nM
DR (%) [2]: 101%

CCCN1CC(Oc2ccc(C(OC)c3c(-c4ccccc4Cl)noc3-c3ccc(O)cc3)cc2)C1 (centres unmarked) [compound 7aw, 4-(3-(2-chlorophenyl)-4-(methoxy(4-(1-propylazetidin-3-yloxy)phenyl)methyl)-isoxazol-5-yl)phenol]
IC50 [1]: 7.94 nM
DR (%) [2]: 64%

C=C(c1ccc(OC2CN(CCC)C2)cc1)c1c(-c2ccccc2Cl)noc1-c1ccc(O)cc1 [compound 7ax, 4-(3-(2-chlorophenyl)-4-(1-(4-(1-propylazetidin-3-yloxy)phenyl)vinyl)isoxazol-5-yl)phenol]
IC50 [1]: 0.794 nM
DR (%) [2]: 33%

C=CCN1CC(Oc2ccc(-c3c(-c4ccc(O)cc4)sc4cc(O)ccc34)cc2)C1.O=C(O)C(F)(F)F [compound 7b, 3-(4-(1-allylazetidin-3-yloxy)phenyl)-2-(4-hydroxyphenyl)benzo[b]thiophen-6-ol 2,2,2-trifluoroacetate]
IC50 [1]: 0.631 nM
DR (%) [2]: 68%

CCCN1CC(Oc2ccc(C(=O)c3c(-c4cccc(O)c4)noc3-c3ccccc3F)cc2)C1.Cl [compound 7ba, (5-(2-fluorophenyl)-3-(3-hydroxyphenyl)isoxazol-4-yl)(4-(1-propylazetidin-3-yloxy)phenyl)methanone hydrochloride]
IC50 [1]: 15.8 nM
DR (%) [2]: 51%

CCCN1CC(Oc2ccc(Cc3c(-c4ccccc4)c(=O)oc4cc(OC)ccc34)cc2)C1 [compound 7bf, 7-methoxy-3-phenyl-4-(4-(1-propylazetidin-3-yloxy)benzyl)-2H-chromen-2-one]
IC50 [1]: 63.1 nM
DR (%) [2]: 33%

CN1CC(Oc2ccc(C(=O)c3c(-c4ccc(O)cc4)sc4cc(O)ccc34)cc2)C1.Cl [compound 7d, (6-hydroxy-2-(4-hydroxyphenyl)benzo[b]thiophen-3-yl)(4-(1-methylazetidin-3-yloxy)phenyl)methanone hydrochloride]
IC50 [1]: 2 nM
DR (%) [2]: 48%

CCCN1CC(Oc2ccc(C(=O)c3c(-c4ccccc4)sc4cc(O)ccc34)cc2)C1.Cl [compound 7e, (6-hydroxy-2-phenylbenzo[b]thiophen-3-yl)(4-(1-propylazetidin-3-yloxy)-phenyl)methanone hydrochloride]
IC50 [1]: 2 nM
DR (%) [2]: 96%

CCCN1CC(Oc2ccc(C(=O)c3c(-c4cccs4)sc4cc(O)ccc34)cc2)C1.Cl [compound 7f, (6-hydroxy-2-(thiophen-2-yl)benzo[b]thiophen-3-yl)(4-(1-propylazetidin-3-yl-oxy)phenyl)methanone hydrochloride]
IC50 [1]: 2.51 nM
DR (%) [2]: 88%

CCN1CC(Oc2ccc(C(=O)c3c(-c4ccc(O)cc4)sc4cc(O)ccc34)cc2)C1.O=C(O)C(F)(F)F [compound 7g, (4-(1-ethylazetidin-3-yloxy)phenyl)(6-hydroxy-2-(4-hydroxyphenyl)benzo[b]-thiophen-3-yl)methanone 2,2,2-trifluoroacetate]
IC50 [1]: 3.98 nM
DR (%) [2]: 46%

O=C(O)C(F)(F)F.O=C(c1ccc(OC2CN(C3CC3)C2)cc1)c1c(-c2ccc(O)cc2)sc2cc(O)ccc12 [compound 7i, (4-(1-cyclopropylazetidin-3-yloxy)phenyl)(6-hydroxy-2-(4-hydroxyphenyl)-benzo[b]thiophen-3-yl)methanone 2,2,2-trifluoroacetate]
IC50 [1]: 2.51 nM
DR (%) [2]: 66%

O=C(O)C(F)(F)F.O=C(c1ccc(OC2CN(CCCF)C2)cc1)c1c(-c2ccc(O)cc2)sc2cc(O)ccc12 [compound 7j, (4-(1-(3-fluoropropyl)azetidin-3-yloxy)phenyl)(6-hydroxy-2-(4-hydroxyphenyl)benzo[b]thiophen-3-yl)methanone 2,2,2-trifluoroacetate]
IC50 [1]: 2.51 nM
DR (%) [2]: 98%

COCCCN1CC(Oc2ccc(C(=O)c3c(-c4ccc(O)cc4)sc4cc(O)ccc34)cc2)C1.O=C(O)C(F)(F)F [compound 7k, (6-hydroxy-2-(4-hydroxyphenyl)benzo[b]thiophen-3-yl)(4-(1-(3-methoxypropyl)azetidin-3-yloxy)phenyl)methanone 2,2,2-trifluoroacetate]
IC50 [1]: 2 nM
DR (%) [2]: 57%

Cl.O=C(c1ccc(OC2CN(C3CCC3)C2)cc1)c1c(-c2ccc(O)cc2)sc2cc(O)ccc12 [compound 7l, (4-(1-cyclobutylazetidin-3-yloxy)phenyl)(6-hydroxy-2-(4-hydroxyphenyl)-benzo[b]thiophen-3-yl)methanone hydrochloride]
IC50 [1]: 0.794 nM
DR (%) [2]: 30%
